Assay results taken from patent US20230048132A1, “CYCLIN-DEPENDENT KINASE INHIBITORS” (SPV THERAPEUTICS INC., priority 2018, published 2023).
pIC50: −log10 of the molar value.

Experiments:
CDK2-CYCLINA = molecular target: T1, CDK2-CYCLINA (Homo sapiens, UniProt P24941); assay: CDK inhibition assay (microfluidic LabChip, IC50 format); format: biochemical; settings: Table 4a; read-out: CDK2 CyclinA IC50
T1 construct: purchased Millipore

CDK6-CYCLIND3 = molecular target: T2, CDK6-CYCLIND3 (Homo sapiens, UniProt Q00534); assay: as above; format: biochemical; settings: Table 4a; read-out: CDK6 CyclinD3 IC50
T2 construct: purchased Carna
T2 sequence (Q00534 whole entry): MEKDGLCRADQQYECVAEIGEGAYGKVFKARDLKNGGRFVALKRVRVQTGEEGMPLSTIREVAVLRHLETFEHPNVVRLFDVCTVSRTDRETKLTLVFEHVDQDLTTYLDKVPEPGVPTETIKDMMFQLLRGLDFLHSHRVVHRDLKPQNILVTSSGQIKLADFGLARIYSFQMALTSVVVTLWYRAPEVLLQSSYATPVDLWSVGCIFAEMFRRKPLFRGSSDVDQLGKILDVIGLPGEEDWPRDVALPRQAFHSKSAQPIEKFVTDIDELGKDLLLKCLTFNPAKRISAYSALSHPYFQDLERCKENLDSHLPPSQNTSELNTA
T2 sequence (P30281 whole entry partner): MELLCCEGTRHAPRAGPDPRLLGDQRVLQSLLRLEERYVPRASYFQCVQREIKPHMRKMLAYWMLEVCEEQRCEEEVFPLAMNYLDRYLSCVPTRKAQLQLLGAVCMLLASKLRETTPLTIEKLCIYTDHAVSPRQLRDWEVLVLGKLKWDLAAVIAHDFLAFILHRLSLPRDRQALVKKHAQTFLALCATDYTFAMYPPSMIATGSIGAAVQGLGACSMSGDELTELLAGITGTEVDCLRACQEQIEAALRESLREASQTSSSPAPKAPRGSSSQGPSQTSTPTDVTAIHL

CDK7 CyclinH = CDK7 CyclinH (Homo sapiens, UniProt P50613); assay: as above; format: biochemical; settings: Table 4a
Sequence of CDK7 CyclinH (P50613 whole entry): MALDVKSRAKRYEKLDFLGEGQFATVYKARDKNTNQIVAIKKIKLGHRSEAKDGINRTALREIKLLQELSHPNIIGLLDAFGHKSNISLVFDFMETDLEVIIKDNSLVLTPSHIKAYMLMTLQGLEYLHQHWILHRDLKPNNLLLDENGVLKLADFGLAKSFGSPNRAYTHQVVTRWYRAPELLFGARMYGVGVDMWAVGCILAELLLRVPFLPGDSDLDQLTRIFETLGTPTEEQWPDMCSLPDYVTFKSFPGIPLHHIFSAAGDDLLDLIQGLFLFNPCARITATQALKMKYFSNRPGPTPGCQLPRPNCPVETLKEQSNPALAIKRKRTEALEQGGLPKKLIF
Sequence of CDK7 CyclinH (P51946 whole entry partner): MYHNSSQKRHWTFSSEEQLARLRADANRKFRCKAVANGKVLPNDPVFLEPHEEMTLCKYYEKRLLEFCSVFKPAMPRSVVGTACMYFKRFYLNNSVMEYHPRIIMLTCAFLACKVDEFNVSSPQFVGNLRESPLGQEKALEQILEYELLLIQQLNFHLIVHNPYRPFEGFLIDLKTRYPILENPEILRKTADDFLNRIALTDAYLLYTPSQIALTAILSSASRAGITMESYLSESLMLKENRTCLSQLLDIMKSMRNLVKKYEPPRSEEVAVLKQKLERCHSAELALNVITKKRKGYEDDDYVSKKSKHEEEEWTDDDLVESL
Sequence of CDK7 CyclinH (P51948 whole entry partner): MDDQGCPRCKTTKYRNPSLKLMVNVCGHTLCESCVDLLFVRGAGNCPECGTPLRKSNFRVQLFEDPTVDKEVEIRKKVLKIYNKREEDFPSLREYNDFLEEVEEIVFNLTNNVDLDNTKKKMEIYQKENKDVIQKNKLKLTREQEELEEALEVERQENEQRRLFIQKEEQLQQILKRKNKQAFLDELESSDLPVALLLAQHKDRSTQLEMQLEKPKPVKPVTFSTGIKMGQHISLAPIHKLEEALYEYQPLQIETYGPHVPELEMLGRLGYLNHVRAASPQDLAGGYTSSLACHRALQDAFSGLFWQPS

CDK9-CYCLINT1 = molecular target: T3, CDK9-CYCLINT1 (Homo sapiens, UniProt P50750); assay: as above; format: biochemical; settings: Table 4a; read-out: CDK9 CyclinT1 IC50
T3 construct: purchased Carna
T3 sequence (P50750 whole entry): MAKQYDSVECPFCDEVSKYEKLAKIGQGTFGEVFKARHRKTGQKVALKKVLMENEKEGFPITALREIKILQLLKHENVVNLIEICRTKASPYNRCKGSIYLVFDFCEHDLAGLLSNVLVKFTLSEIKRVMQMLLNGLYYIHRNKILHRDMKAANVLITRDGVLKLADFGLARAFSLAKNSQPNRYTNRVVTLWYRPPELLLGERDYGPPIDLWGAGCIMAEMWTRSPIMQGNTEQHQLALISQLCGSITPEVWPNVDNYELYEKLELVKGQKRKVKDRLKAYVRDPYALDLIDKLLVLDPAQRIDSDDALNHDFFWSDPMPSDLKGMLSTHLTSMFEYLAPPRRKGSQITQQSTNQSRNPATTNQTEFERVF
T3 sequence (O60563 whole entry partner): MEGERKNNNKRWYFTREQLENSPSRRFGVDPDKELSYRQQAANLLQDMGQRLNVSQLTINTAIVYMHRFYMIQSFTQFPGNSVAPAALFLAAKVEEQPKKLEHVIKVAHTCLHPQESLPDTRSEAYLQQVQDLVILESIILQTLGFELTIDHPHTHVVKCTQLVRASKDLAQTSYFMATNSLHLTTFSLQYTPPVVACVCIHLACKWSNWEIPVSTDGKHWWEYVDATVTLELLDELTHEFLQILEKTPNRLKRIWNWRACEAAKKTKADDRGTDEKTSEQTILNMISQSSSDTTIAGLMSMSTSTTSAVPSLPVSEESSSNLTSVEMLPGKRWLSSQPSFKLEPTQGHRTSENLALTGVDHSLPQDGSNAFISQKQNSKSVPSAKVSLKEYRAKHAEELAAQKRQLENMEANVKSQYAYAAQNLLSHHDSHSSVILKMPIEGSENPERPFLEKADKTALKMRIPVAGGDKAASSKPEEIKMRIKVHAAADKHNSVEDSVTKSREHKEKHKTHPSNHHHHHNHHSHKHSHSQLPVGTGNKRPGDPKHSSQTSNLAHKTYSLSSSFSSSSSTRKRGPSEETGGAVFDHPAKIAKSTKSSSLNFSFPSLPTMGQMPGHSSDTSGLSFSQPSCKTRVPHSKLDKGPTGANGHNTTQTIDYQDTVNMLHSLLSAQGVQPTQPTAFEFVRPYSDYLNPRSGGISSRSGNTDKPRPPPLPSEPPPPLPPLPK

CEXF HeLa = assay: 2D cell proliferation assay (CellTiter-Blue); format: cell-based; settings: Homo sapiens, 72 h, three days of treatment, read-out: abs. IC50
Procedure: (§1) Viability of the cells was analyzed by using the CellTiter-Blue® Cell Viability Assay (Promega), and was performed according to manufacturer's instructions. Briefly, cells were harvested from exponential phase cultures (Chapter 6.6), counted and plated in 96-well flat-bottom microtiter plates at a cell density of 4,000-60,000 cells/well in a volume of 140 μl per well. After a 24 hours recovery period, 10 μL cell culture medium (six control wells/plate) or culture medium with test compound were added (Chapter 6.2). The compounds were applied at five concentrations in full-log increments up to 100 μM in duplicate. Cultures were incubated at 37° C. and 5% CO2 in a humidified atmosphere for another three days. After three days of treatment, 20 μl/well CellTiter-Blue® reagent was added. Following incubation with CellTiter-Blue® reagent for up to four hours, fluorescence (FU) was measured by using the Enspire Multimode Plate Reader (excitation λ=570 nm, emission λ=600 nm). For calculations, the mean values of duplicate/sextuplicate (untreated control) data were used.
(§2) An assay was considered fully evaluable if the following quality control criteria were fulfilled: • control/background ratio>3.0-Z′-factor calculated within the assay plate>0.5 [7]—coefficient of variation in the growth control wells <30%
(§3) Drug effects were expressed in terms of the percentage of the fluorescence signal, obtained by comparison of the mean signal in the treated wells with the mean signal of the untreated controls (expressed by the test-versus-control value, T/C-value [%]):
(§4) IC values are reported as relative IC50 values and absolute IC50 and IC70 values. […] The absolute IC70 value gives the concentration of the test compound that achieves T/C=30%. The relative IC50 value is the concentration of test compound that gives a response halfway between the top and bottom plateau of the sigmoidal concentration-response curve (inflection point of the curve). Calculation was done by 4parameter non-linear curve fit (Oncotest Data Warehouse Software).
(§5) If an IC50 or IC70 value could not be determined within the examined dose range (because a compound was either too active or lacked activity), the lowest or highest concentration studied was used for calculation of the geometric mean value.

CXF HT-29 = assay: 2D cell proliferation assay (CellTiter-Blue); format: cell-based; settings: Homo sapiens, 72 h, three days of treatment, read-out: abs. IC50
Procedure: as §1, §2, §3, §4, §5

LEXFCL MEC-1 = assay: 2D cell proliferation assay (CellTiter-Blue); format: cell-based; settings: Homo sapiens, MEC1, 72 h, three days of treatment, read-out: abs. IC50
Procedure: as §1, §2, §3, §4, §5

LIXAH HLE = assay: 2D cell proliferation assay (CellTiter-Blue); format: cell-based; settings: 72 h, three days of treatment, read-out: abs. IC50
Procedure: as §1, §2, §3, §4, §5

LXFA NCl-H1975 = assay: 2D cell proliferation assay (CellTiter-Blue); format: cell-based; settings: 72 h, three days of treatment, read-out: abs. IC50
Procedure: as §1, §2, §3, §4, §5

LXFL NCl-H1299 = assay: 2D cell proliferation assay (CellTiter-Blue); format: cell-based; settings: 72 h, three days of treatment, read-out: abs. IC50
Procedure: as §1, §2, §3, §4, §5

MAXFLB MCF7 (ER+) = assay: 2D cell proliferation assay (CellTiter-Blue); format: cell-based; settings: Homo sapiens, 72 h, three days of treatment, read-out: abs. IC50
Procedure: as §1, §2, §3, §4, §5

MAXFLB T47D (ER+) = assay: 2D cell proliferation assay (CellTiter-Blue); format: cell-based; settings: Homo sapiens, 72 h, three days of treatment, read-out: abs. IC50
Procedure: as §1, §2, §3, §4, §5

MAXFTN BT-549 = assay: 2D cell proliferation assay (CellTiter-Blue); format: cell-based; settings: Homo sapiens, 72 h, three days of treatment, read-out: abs. IC50
Procedure: as §1, §2, §3, §4, §5

MAXFTN MDA-MB-231 (ER−) = assay: 2D cell proliferation assay (CellTiter-Blue); format: cell-based; settings: Homo sapiens, 72 h, three days of treatment, read-out: abs. IC50
Procedure: as §1, §2, §3, §4, §5

MAXFTN MDA-MB-468 (ER−) = assay: 2D cell proliferation assay (CellTiter-Blue); format: cell-based; settings: Homo sapiens, 72 h, three days of treatment, read-out: abs. IC50
Procedure: as §1, §2, §3, §4, §5

MEXF A-375 = assay: 2D cell proliferation assay (CellTiter-Blue); format: cell-based; settings: Homo sapiens, 72 h, three days of treatment, read-out: abs. IC50
Procedure: as §1, §2, §3, §4, §5

MEXF M14 = assay: 2D cell proliferation assay (CellTiter-Blue); format: cell-based; settings: 72 h, three days of treatment, read-out: abs. IC50
Procedure: as §1, §2, §3, §4, §5

MEXF MDA-MB-435 = assay: 2D cell proliferation assay (CellTiter-Blue); format: cell-based; settings: Homo sapiens, 72 h, three days of treatment, read-out: abs. IC50
Procedure: as §1, §2, §3, §4, §5

MMXF U-266 = assay: 2D cell proliferation assay (CellTiter-Blue); format: cell-based; settings: Homo sapiens, 72 h, three days of treatment, read-out: abs. IC50
Procedure: as §1, §2, §3, §4, §5

PAXF MIA-Pa-Ca-2 = assay: 2D cell proliferation assay (CellTiter-Blue); format: cell-based; settings: Homo sapiens, MIA PaCa-2, 72 h, three days of treatment, read-out: abs. IC50
Procedure: as §1, §2, §3, §4, §5

PRXF DU-145 = assay: 2D cell proliferation assay (CellTiter-Blue); format: cell-based; settings: Homo sapiens, 72 h, three days of treatment, read-out: abs. IC50
Procedure: as §1, §2, §3, §4, §5

PRXF LNCaP = assay: 2D cell proliferation assay (CellTiter-Blue); format: cell-based; settings: Homo sapiens, 72 h, three days of treatment, read-out: abs. IC50
Procedure: as §1, §2, §3, §4, §5

all cell lines tested = assay: 2D cell proliferation assay, geometric mean over the cell line panel; format: cell-based; settings: Table 5 upper part; geometric mean over the 47-line panel; read-out: Geomean abs. IC50 value
Procedure: as §1, §4, §5
The overall potency of a compound was determined by the geometric mean IC50/IC70 values of all individual IC50/IC70 values. In the heatmap representation of IC50 and IC70 values, the distribution of the IC50 or IC70 values obtained for a test compound in the individual cell lines is given in relation to the geometric mean IC50 or IC70 value, obtained over all PDX models tested. The individual IC values range from 1/32-fold geometric mean IC (corresponding to very potent compound activity or high tumor sensitivity) to 32-fold geometric mean IC (corresponding to lack of compound activity or tumor resistance). The heatmap presentation, therefore, represents an antiproliferative “fingerprint” profile of a test compound.

CDK4-CYCLIND1 = CDK4-CYCLIND1 (Homo sapiens, UniProt P11802); assay: CDK inhibition assay (microfluidic LabChip, IC50 format); settings: CDK4 CyclinD1 IC50, Table 4a; a second value in parentheses for some compounds
Sequence of CDK4-CYCLIND1 (P11802 whole entry): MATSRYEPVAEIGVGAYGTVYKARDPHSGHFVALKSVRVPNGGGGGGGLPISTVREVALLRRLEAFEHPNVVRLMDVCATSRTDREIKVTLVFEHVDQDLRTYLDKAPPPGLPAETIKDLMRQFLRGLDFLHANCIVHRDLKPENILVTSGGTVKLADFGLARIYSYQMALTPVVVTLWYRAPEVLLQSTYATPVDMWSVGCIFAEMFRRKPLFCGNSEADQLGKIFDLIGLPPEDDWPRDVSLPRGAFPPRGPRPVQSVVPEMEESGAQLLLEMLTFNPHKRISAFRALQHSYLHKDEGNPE
Sequence of CDK4-CYCLIND1 (P24385 whole entry partner): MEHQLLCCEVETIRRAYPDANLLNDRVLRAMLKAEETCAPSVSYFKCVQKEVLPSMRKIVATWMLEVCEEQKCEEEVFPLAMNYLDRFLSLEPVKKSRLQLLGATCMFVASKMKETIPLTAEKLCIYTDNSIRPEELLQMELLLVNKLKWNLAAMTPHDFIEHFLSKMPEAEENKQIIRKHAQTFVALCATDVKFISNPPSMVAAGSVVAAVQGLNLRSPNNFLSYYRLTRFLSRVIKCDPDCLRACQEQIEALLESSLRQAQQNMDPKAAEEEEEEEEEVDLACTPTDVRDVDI
Procedure: Inhibition assays were performed using microfluidic LabChip 300 Drug Discovery System from Caliper Life Sciences. […] The assay has a total volume of 10 μL consisting of 5 μL of enzyme and buffer and 5 μL of substrate and buffer. The test compounds were diluted in 100% dimethylsulfoxide (DMSO) using 3-fold dilution steps. […] Compounds were tested in a single well for each dilution and the final concentration of DMSO was maintained at 1%.
The assay buffer contained 100 mM HEPES, pH 7.5, 0.01% Triton X-100, 0.1% bovine serum albumin (BSA), 5 mM MgCl2; 1 mM dithiothreitol (DTT), 10 μM sodium orthovanadate, and 10 μM β-glycerophosphate.
The assay was conducted by adding 5 μL of enzyme, adenosine triphosphate (ATP) and buffer to an assay plate. A 100 nL aliquot of the diluted compounds were added to the plate. The assay was initiated by the addition of 5 μL of phosphoenolpyruvate substrate (PEP) in buffer. […] The reaction was terminated by the addition of EDTA. The plates were analyzed using a Caliper LabChip 3000.
Additional inhibition assays were performed as described above.
The assays were conducted as described above for the racemates.

Compound	pIC50 (CDK2-CYCLINA)	pIC50 (CDK6-CYCLIND3)	pIC50 (CDK7 CyclinH)	pIC50 (CDK9-CYCLINT1)	pIC50 (CEXF HeLa)	pIC50 (CXF HT-29)	pIC50 (LEXFCL MEC-1)	pIC50 (LIXAH HLE)	pIC50 (LXFA NCl-H1975)	pIC50 (LXFL NCl-H1299)	pIC50 (MAXFLB MCF7 (ER+))	pIC50 (MAXFLB T47D (ER+))	pIC50 (MAXFTN BT-549)	pIC50 (MAXFTN MDA-MB-231 (ER−))	pIC50 (MAXFTN MDA-MB-468 (ER−))	pIC50 (MEXF A-375)	pIC50 (MEXF M14)	pIC50 (MEXF MDA-MB-435)	pIC50 (MMXF U-266)	pIC50 (PAXF MIA-Pa-Ca-2)	further results
CN(C)[C@H]1CCN(c2ccc(Nc3ncc4c(n3)N(C3CCCC3)C(=O)[C@]3(CCNC3=O)C4)nc2)C1 [Example D178, (S)-8-cyclopentyl-2-((5-((S)-3-(dimethylamino)pyrrolidin-1-yl)pyridin-2-yl)amino)-5,8-dihydro-7H-spiro[pyrido[2,3-d]pyrimidine-6,3′-pyrrolidine]-2′,7-dione]	6.90	8.73	5.95	8.37	4.43	4.50	4.43	4.67	4.78	4.52	4.49	4.34	4.78	5.61	4.17	6.11	4.61	4.74	4.21	4.18	pIC50 (PRXF DU-145): 4.72; pIC50 (PRXF LNCaP): 4.68; pIC50 (all cell lines tested): 4.78; pIC50 (CDK4-CYCLIND1): 8.99
CC(C)N1CCN(c2ccc(Nc3ncc4c(n3)N(C3CCCC3)C(=O)[C@]3(CCNC3=O)C4)nc2)CC1 [Example D154, (S)-8-cyclopentyl-2-((5-(4-isopropylpiperazin-1-yl)pyridin-2-yl)amino)-5,8-dihydro-7H-spiro[pyrido[2,3-d]pyrimidine-6,3′-pyrrolidine]-2′,7-dione]	5.67	8.63	4.87	6.79	4.14	4.52	5.01	4.67	4.58	4.43	4.53	4.01	4.71	5.31	4.14	6.60	4.67	4.80	4.10	4.13	pIC50 (PRXF DU-145): 4.51; pIC50 (PRXF LNCaP): 4.51; pIC50 (all cell lines tested): 4.77; pIC50 (CDK4-CYCLIND1): 8.69
O=C1NCC[C@@]12Cc1cnc(Nc3ccc(N4CCNCC4)cc3F)nc1N(C1CCCC1)C2=O [Example D146, (S)-8-cyclopentyl-2-((2-fluoro-4-(piperazin-1-yl)phenyl)amino)-5,8-dihydro-7H-spiro[pyrido[2,3-d]pyrimidine-6,3′-pyrrolidine]-2′,7-dione]	6.56	8.09	5.95	7.61	5.80	5.05	6.85	6.03	6.45	5.05	5.98	5.79	5.64	6.15	6.03	6.58	5.80	6.06	5.34	5.20	pIC50 (PRXF DU-145): 6.26; pIC50 (PRXF LNCaP): 6.46; pIC50 (all cell lines tested): 5.91; pIC50 (CDK4-CYCLIND1): 8.38
CN(C)CCOc1ccc(Nc2ncc3c(n2)N(C2CCCC2)C(=O)[C@]2(CCNC2=O)C3)cc1 [Example D179, (S)-8-cyclopentyl-2-((4-(2-(dimethylamino)ethoxy)phenyl)amino)-5,8-dihydro-7H-spiro[pyrido[2,3-d]pyrimidine-6,3′-pyrrolidine]-2′,7-dione]	7.17	8.67	6.49	8.73	6.57	6.25	6.35	6.99	7.54	6.45	7.24	6.08	6.60	7.28	6.17	7.21	6.57	6.99	6.09	6.79	pIC50 (PRXF DU-145): 7.33; pIC50 (PRXF LNCaP): 7.62; pIC50 (all cell lines tested): 6.69; pIC50 (CDK4-CYCLIND1): 8.90
